Results from patent publication US20260176260A1, “DUAL RAF AND TUBULIN INHIBITORS AND METHODS OF USE THEREOF” (Deciphera Pharmaceuticals, LLC, priority 2023, published 2026).
Where two headings read alike, the source gives them in different places.

Tests used:
Porcine Brain Tubulin = target: T1, Porcine Brain Tubulin (Sus scrofa, UniProt P02550+P02554); assay: Biochemical tubulin polymerization assay
T1 construct: Porcine Brain Tubulin (T240); purchased Cytoskeleton, Inc T240; BK011P; host or cells: porcine brain

MiaPaca-2 cells = assay: MiaPaca-2 cell proliferation assay (resazurin); assay type: cell-based; details: Homo sapiens, MIA PaCa-2
Protocol: MiaPaca-2 cells (catalog #CRL-1420) are obtained from the American Type Culture Collect (ATTC, Manassas, VA). Briefly, cells were grown in DMVEM supplemented with […] fetal bovine serum (Invitrogen, Carlsbad, CA), 2.5% New Zealand sourced horse serum and 1% Penicillin/Streptomycin/L-Glutamine at 37° C., […], and […]. Cells are expanded until reaching […] at which point they are sub-cultured or harvested for assay use. For assays completed in 96-well plates, a serial dilution of test compound is dispensed into a 96-well black clear bottom plate in triplicate. Three thousand cells are added per well in 200 μL complete growth medium in the 96-well plate. Plates are incubated for 67 to 72 h at 37° C., 5% CO2, and 95% humidity. At the end of the incubation, 40 μL of a […] solution of resazurin (Sigma, St. Louis, MO) in PBS is added to each well of the plate and plates are incubated for an additional 5 to 6 h at 37° C., 5% CO2, and 95% humidity. For 384-well assays, a threefold, 8-point serial dilution of compound was spotted column wise into a 384 well black, clear bottom, tissue culture treated plate using the Beckman Coulter Echo 650. Likewise, a threefold, 8-point serial dilution of cobimetinib was spotted row wise into the 384 well black, clear bottom plate containing compound. DMSO concentration was constant across all wells at 0.4%. Seven hundred fifty cells are added per well in 50 μL complete growth medium in each 384-well plate. Plates are incubated for 67 to 72 h at 37° C., 5% CO2, and 95% humidity. At the end of the incubation, 10 μL of a 440 μM solution of resazurin (Sigma, St. Louis, MO) in PBS is added to each well of the plate and plates are incubated for an additional 4 to 6 h at 37° C., 5% CO2, and 95% humidity. Plates are read on a Synergy2 or equivalent reader (Biotek, Winooski VT) using an excitation of 540 nm and an emission of 600 nm. Data is analyzed using Prism software (Graphpad, San Diego, CA) to calculate IC50 values.

HPAF-II cells = assay: HPAF-II cell proliferation assay (resazurin); assay type: cell-based; details: Homo sapiens
Protocol: HPAF-II cells (catalog #CRL-1997) are obtained from the American Type Culture Collect (ATCC, Manassas, VA). Briefly, cells are grown in Minimum Essential Media supplemented with 10% characterized fetal bovine serum (Invitrogen, Carlsbad, CA) and 1% Penicillin/Streptomycin/L-Glutamine at 37° C., 5% CO2, and 95% humidity. Cells are expanded until reaching 70-95% confluency at which point they are sub-cultured or harvested for assay use. A serial dilution of test compound is dispensed into a 384-well black clear bottom plate in triplicate. 750 cells are added per well in 50 μL complete growth medium in the 384-well plate. Plates are incubated for 115 to 120 h at 37° C., 5% CO2, and 95% humidity. At the end of the incubation, 40 μL of a […] solution of resazurin (Sigma, St. Louis, MO) in PBS is added to each well of the plate and plates are incubated for an additional 18 to 24 h at 37° C., 5% CO2, and 95% humidity. Plates are read on a Synergy2 or equivalent reader (Biotek, Winooski, VT) using an excitation of 540 nm and an emission of 600 nm. Data is analyzed using Prism software (Graphpad, San Diego, CA) to calculate IC50 values.

HCT-116 cells = assay: HCT-116 cell proliferation assay (resazurin); assay type: cell-based; details: Homo sapiens
Protocol: HCT-116 cells (catalog #CCL-247) are obtained from the American Type Culture Collect (ATCC, Manassas, VA). Briefly, cells are grown in McCoy's 5A supplemented with 10% characterized fetal bovine serum (Invitrogen, Carlsbad, CA) and 1% Penicillin/Streptomycin/L-Glutamine at 37° C., 5% CO2, and 95% humidity. Cells are expanded until reaching 70-95% confluency at which point they are sub-cultured or harvested for assay use. A serial dilution of test compound is dispensed into a 384-well black clear bottom plate in triplicate. 375 cells are added per well in 50 μL complete growth medium in the 384-well plate. Plates are incubated for 67 to 72 h at 37° C., 5% CO2, and 95% humidity. At the end of the incubation, 40 μL of a […] solution of resazurin (Sigma, St. Louis, MO) in PBS is added to each well of the plate and plates are incubated for an additional 4 to 5 h at 37° C., 5% CO2, and 95% humidity. Plates are read on a Synergy2 or equivalent reader (Biotek, Winooski, VT) using an excitation of 540 nm and an emission of 600 nm. Data is analyzed using Prism software (Graphpad, San Diego, CA) to calculate IC50 values.

[1] = system: tubulin polymerization in HCT-116 cells; assay: Cellular tubulin polymerization assay (pellet/supernatant a-tubulin, HCT-116 cells); assay type: cell-based
Protocol: HCT-116 cells (catalog #CCL-247) are obtained from the American Type Culture Collect (ATCC, Manassas, VA). Briefly, cells are grown in McCoy's 5A supplemented with 10% characterized fetal bovine serum (Invitrogen, Carlsbad, CA) and 1% Penicillin/Streptomycin/L-Glutamine at 37° C., 5% CO2, and 95% humidity. Cells are expanded until reaching 70-95% confluency at which point they are sub-cultured or harvested for assay use. 450000 cells are added per well in 1500 μL complete growth medium in a tissue culture treated, 12-well plate. Plates are incubated for 18 to 24 h at 37° C., 5% CO2, and 95% humidity. At the end of the incubation, 2000 μL of base culture media is added to each well, followed by a serial dilution of compound. Plates are incubated for an additional 1 h at 37° C., 5% CO2, and 95% humidity. Lysates are generated by the addition of 100 μL Lysis and Microtubule Stabilization Buffer 1 (LMS01, Cytoskeleton Inc, Denver, CO) supplemented with GTP (BST06, Cytoskeleton Inc), ATP (BSA04, Cytoskeleton Inc), and Protease Inhibitor Cocktail Stock (PIC02, Cytoskeleton Inc). Cells are scraped off wells using a rubber cell scraper and collected in a clean 96-well plate. Lysates are centrifuged at 1000×g, 37° C. for 10 min and supernatant fraction is placed into an additional 96-well plate. The remaining pellet fraction is reconstituted in 100 μL LMS01 buffer and sonicated for 10 min. Pellet and Supernatant fractions are probed for a-tubulin via western blot analysis on the Jess System or equivalent (Bio-techne, Minneapolis, MN). Data is analyzed using Prism software (Graphpad, San Diego, CA) to calculate IC50 values.

C-Raf kinase = target: T2, C-Raf kinase (Homo sapiens, UniProt P04049, Y340D/Y341D); assay: Biochemical assay for C-Raf (coupled pyruvate kinase/lactate dehydrogenase); details: Table 4; read-out: CRAF IC50
T2 construct: C-Raf residues 306-end; Y340D, Y341D with N-; purchased Sigma

B-Raf kinase = target: T3, B-Raf kinase (Homo sapiens, UniProt P15056); assay: Biochemical assay for B-Raf (coupled pyruvate kinase/lactate dehydrogenase); details: Table 4; read-out: BRAF IC50
T3 construct: purchased Sigma

[2] = Table 5, read-out: Tubulin Biochem
[3] = Table 4, read-out: Tubulin Biochem IC50
[4] = HPAF-II, Table 4, read-out: HPAF-II IC50
[5] = HCT-116, Table 4, read-out: HCT-116 IC50

T1 sequence (P02550 whole entry): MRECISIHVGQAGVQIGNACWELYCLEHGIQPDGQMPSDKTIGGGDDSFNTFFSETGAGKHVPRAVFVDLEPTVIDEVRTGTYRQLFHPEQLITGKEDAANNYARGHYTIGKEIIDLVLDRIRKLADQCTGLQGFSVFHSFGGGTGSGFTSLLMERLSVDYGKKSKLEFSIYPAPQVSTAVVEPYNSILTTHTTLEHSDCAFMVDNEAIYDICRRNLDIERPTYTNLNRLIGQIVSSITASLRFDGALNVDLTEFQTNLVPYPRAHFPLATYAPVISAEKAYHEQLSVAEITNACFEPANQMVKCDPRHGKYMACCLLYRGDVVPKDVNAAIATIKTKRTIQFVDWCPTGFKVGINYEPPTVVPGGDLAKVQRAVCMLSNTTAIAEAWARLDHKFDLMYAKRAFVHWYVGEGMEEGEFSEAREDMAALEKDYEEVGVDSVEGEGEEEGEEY
T1 sequence (P02554 whole entry): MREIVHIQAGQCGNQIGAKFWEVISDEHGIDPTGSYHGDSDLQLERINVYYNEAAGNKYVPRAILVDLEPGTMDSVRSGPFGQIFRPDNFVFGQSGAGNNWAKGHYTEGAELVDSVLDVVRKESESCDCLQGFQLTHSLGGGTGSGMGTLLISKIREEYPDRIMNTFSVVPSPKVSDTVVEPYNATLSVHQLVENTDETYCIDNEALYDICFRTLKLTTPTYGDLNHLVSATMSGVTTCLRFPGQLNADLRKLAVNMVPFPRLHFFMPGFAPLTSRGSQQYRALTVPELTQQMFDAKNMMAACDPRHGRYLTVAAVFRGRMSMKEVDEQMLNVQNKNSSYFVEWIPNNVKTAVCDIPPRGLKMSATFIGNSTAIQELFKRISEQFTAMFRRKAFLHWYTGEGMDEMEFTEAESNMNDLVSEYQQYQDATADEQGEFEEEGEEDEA
T2 sequence (P04049 307-648 Y340D/Y341D): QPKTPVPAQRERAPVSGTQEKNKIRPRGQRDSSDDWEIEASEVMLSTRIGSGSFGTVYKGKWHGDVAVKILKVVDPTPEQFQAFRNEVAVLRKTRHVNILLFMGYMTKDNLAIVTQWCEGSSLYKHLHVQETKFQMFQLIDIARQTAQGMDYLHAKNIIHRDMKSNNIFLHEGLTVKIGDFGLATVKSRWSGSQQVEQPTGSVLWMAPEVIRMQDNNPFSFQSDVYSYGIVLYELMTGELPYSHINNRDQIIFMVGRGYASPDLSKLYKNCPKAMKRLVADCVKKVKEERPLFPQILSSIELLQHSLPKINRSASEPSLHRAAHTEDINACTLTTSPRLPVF
T3 sequence (P15056 416-766): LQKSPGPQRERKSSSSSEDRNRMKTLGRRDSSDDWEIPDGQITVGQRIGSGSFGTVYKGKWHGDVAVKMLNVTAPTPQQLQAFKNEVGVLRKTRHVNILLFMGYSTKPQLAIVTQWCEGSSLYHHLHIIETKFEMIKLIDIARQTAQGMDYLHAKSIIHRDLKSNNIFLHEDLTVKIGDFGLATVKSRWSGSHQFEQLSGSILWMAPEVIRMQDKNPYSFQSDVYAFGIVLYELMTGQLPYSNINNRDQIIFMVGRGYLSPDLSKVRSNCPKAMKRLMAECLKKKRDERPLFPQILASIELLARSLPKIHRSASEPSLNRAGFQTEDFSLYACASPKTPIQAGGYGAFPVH

SMILES	IC50 (C-Raf kinase)	IC50 (Porcine Brain Tubulin; [3])	IC50 (HPAF-II cells; [4])	IC50 (HCT-116 cells; [5])	IC50 (B-Raf kinase)	further results
C[C@@H](NC(=O)c1ncnc(N)c1Cl)c1ncc(C(=O)Nc2cc(C(F)(F)F)c(Cl)cn2)s1 [Tovorafenib, reference compound]						IC50 (Porcine Brain Tubulin; [2]): > 100000 nM; IC50 (MiaPaca-2 cells; Table 5, read-out: MiaPaca-2): 1000 to 10000 nM; IC50 (HPAF-II cells; Table 5, read-out: HPAF-II): 1000 to 10000 nM; IC50 (HCT-116 cells; Table 5, read-out: HCT-116): 1000 to 10000 nM; IC50 ([1]; Table 5, HCT-116 cells, read-out: Tubulin Cellular): 1000 to 10000 nM
CCCS(=O)(=O)Nc1ccc(F)c(C(=O)c2c[nH]c3ncc(-c4ccc(Cl)cc4)cc23)c1F [Vemurafenib, reference compound]						IC50 (Porcine Brain Tubulin; [2]): > 100000 nM; IC50 (MiaPaca-2 cells; Table 5, read-out: MiaPaca-2): 1000 to 10000 nM; IC50 (HPAF-II cells; Table 5, read-out: HPAF-II): 1000 to 10000 nM; IC50 (HCT-116 cells; Table 5, read-out: HCT-116): 1000 to 10000 nM
CC(C)(C)c1[nH]cnc1/C=c1\[nH]c(=O)/c(=C/c2ccccc2)[nH]c1=O [plinabulin, reference compound]						IC50 ([1]; ratio of pellet to supernatant vs DMSO control, HCT-116 cells, read-out: IC50 of inhibition of tubulin polymerization, cellular tubulin assay (FIG. 2)): 5 nM
CNC(=O)c1cc(-c2cc(-c3cc(NC(=O)c4ccnc(C(C)(C)F)c4)ccc3C)ccn2)ccn1 [reference compound]	< 100 nM	> 100000 nM	1000 to 10000 nM	500 to 1000 nM	< 100 nM	IC50 ([1]; Table 4, HCT-116 cells, read-out: Tubulin Cellular IC50): 1000 to 10000 nM
CNC(=O)c1cc(-c2cc(-c3cc(NC(=O)c4cnnc(C(F)(F)F)c4)ccc3C)ccn2)ccn1 [reference compound]	< 100 nM	> 100000 nM	1000 to 10000 nM	1000 to 10000 nM	< 100 nM	IC50 (MiaPaca-2 cells; Table 4, read-out: MiaPaca-2 IC50): 1000 to 10000 nM
Cc1cc(-c2cc(NC(=O)c3ccnc(C(C)(C)F)c3)ccc2C)cc(-c2ccnc(C(N)=O)c2)n1 [reference compound]	< 100 nM	> 100000 nM	1000 to 10000 nM	1000 to 10000 nM	< 100 nM	
CNC(=O)c1cc(-c2cc(-c3cc(NC(=O)c4ccnc(C(C)(C)C#N)c4)c(F)cc3C)ccn2)ccn1 [reference compound]	< 100 nM	> 100000 nM	1000 to 10000 nM	500 to 1000 nM		
